Reference: patent publication US12144864B2, “Tubulysins and protein-tubulysin conjugates” (Regeneron Pharmaceuticals, Inc., priority 2018, dated 2024)
Where two headings read alike, the source gives them in different places.

Columns and labels:
C4-2 cells = test: Cell-based killing assay of payloads (CellTiter-Glo), C4-2 cells; set-up: species or system human; conditions: 5-day incubation
How it was run: (§1)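 Cells plated at 4000/well in line-specific complete medium, grown overnight, then exposed to 1:3 serial dilutions of payload (100 nM to […]) for 5 days. ATP-based CellTiter-Glo luminescence read; IC50 from four-parameter logistic 10-point fit, and % kill at top concentration as 100 − % viable.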

T47D cells = test: Cell-based killing assay of payloads (CellTiter-Glo), T47D cells; set-up: species or system human; conditions: 5-day incubation
How it was run: as §1

HEK293 cells = test: Cell-based killing assay of payloads (CellTiter-Glo), HEK293 cells; set-up: species or system human; conditions: 5-day incubation
How it was run: as §1

HCT15 cells = test: cells; format: cell-based, human; conditions: HCT15 cells
How it was run: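 HCT15 colorectal carcinoma cells, 1000 per well in RPMI/10% FBS, with or without 5 ug/mL verapamil, exposed to 1:3 serially diluted payloads for 5 days at 37 °C. Viability measured by CellTiter-Glo ATP luminescence; IC50 from four-parameter logistic fit of a 10-point curve, % kill at top concentration.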

HL60/MX2 cells = test: Cytotoxicity in panel of MDR cell lines, HL60/MX2 (72 h and 144 h); format: cell-based, human; conditions: for IC50: Homo sapiens
How it was run: (§2)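 Luminescent ATP readout (CellTiter-Glo) quantified viable cells after 72 h or 144 h exposure to 1:3 serial payload dilutions. Cells plated at 1000/well in their normal growth media. IC50 in M from a four-parameter logistic fit; % kill at top concentration taken as 100 − % viable.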

MES-SA/MX2 cells = test: Cytotoxicity in panel of MDR cell lines, MES-SA/MX2 (72 h and 144 h); format: cell-based, human; conditions: for IC50: Homo sapiens
How it was run: as §2

HCT-15 cells = test: Cytotoxicity in panel of MDR cell lines, HCT-15 (72 h and 144 h); format: cell-based, human; conditions: for IC50: Homo sapiens
How it was run: as §2

H69AR cells = test: Cytotoxicity in panel of MDR cell lines, H69AR (72 h and 144 h); format: cell-based, human; conditions: for IC50: Homo sapiens
How it was run: as §2

[1] = at maximum concentration tested

With CCCCCON(C(=O)[C@@H](NC(=O)[C@H]1CCCCN1C)[C@@H](C)CC)[C@H](C[C@@H](OC(C)=O)c1nc(C(=O)N[C@@H](Cc2ccc(N)cc2)CC(C)(C)C(=O)O)cs1)C(C)C [Vb, (4S)-4-({2-[(1R,3R)-1-(Acetyloxy)-4-methyl-3-[(2S,3S)-3-methyl-2-{[(2R)-1-methylpiperidin-2-yl]formamido}-N-(pentyloxy)pentanamido]pentyl]-1,3-thiazol-4-yl}formamido)-5-(4-aminophenyl)-2,2-dimethylpentanoic acid] the IC50 (C4-2 cells; Homo sapiens, C4-2, 120 h, average ± SD where replicates) was 70 pM, the “C4-2 % Kill” value (C4-2 cells; at maximum concentration tested (100 − % viable cells)) was 92.3 ± 1.7% and the IC50 (T47D cells; Homo sapiens, T47D, 120 h) was 144 pM. The “T47D % Kill” value (T47D cells; [1]) was 66.5%, the IC50 (HEK293 cells; Homo sapiens, HEK293, 120 h) was 289 pM and the “HEK293 % Kill” value (HEK293 cells; [1]) was 87.8%. For the same compound, the “HCT-15 + verapamil % Kill” value (HCT15 cells; with 5 ug/mL Verapamil, maximum % cell killing) was 98.2 ± 0.5%, the IC50 (HCT15 cells; with 5 ug/mL Verapamil, read-out: HCT-15 + verapamil IC50) was 36.5 pM and the “HCT-15 % Kill” value (HCT15 cells; without Verapamil, maximum % cell killing) was 98.8 ± 0.7%. For the same compound, the IC50 (HCT15 cells; Homo sapiens, HCT-15, without Verapamil, read-out: HCT-15 IC50) was 120 pM, the “HL60/MX2 % Kill 72 h” value (HL60/MX2 cells; 72 h incubation) was 97.9% and the “HL60/MX2 % Kill 144 h” value (HL60/MX2 cells; 144 h incubation) was 100%. The IC50 (HL60/MX2 cells; 72 h incubation, read-out: HL60/MX2 IC50 72 h) was less than 15 pM, the IC50 (HL60/MX2 cells; 144 h incubation, read-out: HL60/MX2 IC50 144 h) was less than 15 pM and the “MES-SA/MX2 % Kill 72 h” value (MES-SA/MX2 cells; 72 h incubation) was 99.6%. The “MES-SA/MX2 % Kill 144 h” value (MES-SA/MX2 cells; 144 h incubation) was 99.9%, the IC50 (MES-SA/MX2 cells; 72 h incubation, read-out: MES-SA/MX2 IC50 72 h) was 213 pM and the IC50 (MES-SA/MX2 cells; 144 h incubation, read-out: MES-SA/MX2 IC50 144 h) was 1040 pM. The “HCT-15 % Kill 72 h” value (HCT-15 cells; 72 h incubation) was 97.8%, the “HCT-15 % Kill 144 h” value (HCT-15 cells; 144 h incubation) was 99.7% and the IC50 (HCT-15 cells; 72 h incubation, read-out: HCT-15 IC50 72 h) was 62.3 pM. For the same compound, the IC50 (HCT-15 cells; 144 h incubation, read-out: HCT-15 IC50 144 h) was 127 pM, the “H69AR % Kill 72 h” value (H69AR cells; 72 h incubation) was 97% and the “H69AR % Kill 144 h” value (H69AR cells; 144 h incubation) was 99.4%. For the same compound, the IC50 (H69AR cells; 72 h incubation, read-out: H69AR IC50 72 h) was 272 pM and the IC50 (H69AR cells; 144 h incubation, read-out: H69AR IC50 144 h) was 660 pM.
